Data reported in ChEMBL document CHEMBL3885881, “DrugMatrix”.

Species on record: Rattus norvegicus
Assay: DrugMatrix - Regimen: Daily Repeat
Format: toxicity, organism-based, Sprague-Dawley
Parameters: regimen Daily Repeat, gender Male, age 6-8 weeks
Settings: in vivo, iv, vehicle 100 % SALINE; for ABSOLUTE BASOPHIL / ABSOLUTE EOSINOPHIL / ABSOLUTE LYMPHOCYTE / ABSOLUTE MONOCYTE / ABSOLUTE SEGMENTED NEUTROPHIL / BASOPHIL / EOSINOPHIL / ERYTHROCYTE COUNT / HEMATOCRIT / HEMOGLOBIN / LEUKOCYTE COUNT / LYMPHOCYTE / MEAN CORPUSCULAR HEMOGLOBIN / MEAN CORPUSCULAR HEMOGLOBIN CONCENTRATION / MEAN CORPUSCULAR VOLUME / MONOCYTE / NEUTROPHIL / NUCLEATED RED BLOOD CELLS / PLATELET COUNT: tissue Blood; for ALANINE AMINOTRANSFERASE / ALBUMIN / ALKALINE PHOSPHATASE / ASPARTATE AMINOTRANSFERASE / BLOOD UREA NITROGEN / CARBON DIOXIDE / CHLORIDE / CHOLESTEROL / CREATINE PHOSPHOKINASE / CREATININE / GLUCOSE / LACTATE DEHYDROGENASE / LIPASE / PHOSPHORUS / POTASSIUM / SODIUM / TOTAL BILIRUBIN / TOTAL PROTEIN / URIC ACID: tissue Plasma
[1] = 33 mg/kg, 72 h, dose level Low, time 3 day
[2] = 33 mg/kg, 120 h, dose level Low, time 5 day
[3] = 1000 mg/kg, 72 h, dose level High, time 3 day
[4] = 1000 mg/kg, 120 h, dose level High, time 5 day

With `CO/N=C(\C(=O)N[C@@H]1C(=O)N2C(C(=O)O)=C(COC(C)=O)CS[C@H]12)c1csc(N)n1` [CEFOTAXIME] the “ABSOLUTE BASOPHIL” value [1] was 0 CELLS/uL, the “ABSOLUTE EOSINOPHIL” value [1] was 0 CELLS/uL and the “ABSOLUTE LYMPHOCYTE” value [1] was 11282.67 CELLS/uL. The “ABSOLUTE MONOCYTE” value [1] was 120 CELLS/uL, the “ABSOLUTE SEGMENTED NEUTROPHIL” value [1] was 730.67 CELLS/uL and the BASOPHIL [1] was 0%. For the same compound, the EOSINOPHIL [1] was 0%, the “ERYTHROCYTE COUNT” value [1] was 5.79 x10E6/uL and the HEMATOCRIT [1] was 35.7%. The HEMOGLOBIN [1] was 13.43 G/DL, the “LEUKOCYTE COUNT” value [1] was 12.13 x10E3/uL and the LYMPHOCYTE [1] was 93%. For the same compound, the “MEAN CORPUSCULAR HEMOGLOBIN” value [1] was 23.2 pg, the “MEAN CORPUSCULAR HEMOGLOBIN CONCENTRATION” value [1] was 37.63 G/DL and the “MEAN CORPUSCULAR VOLUME” value [1] was 61.63 fL. The MONOCYTE [1] was 0.67%, the NEUTROPHIL [1] was 6.33% and the “NUCLEATED RED BLOOD CELLS” value [1] was 0 /100WBC. For the same compound, the “PLATELET COUNT” value [1] was 1231.67 x10E3/uL, the “ALANINE AMINOTRANSFERASE” value [1] was 55 u/L and the ALBUMIN [1] was 4.17 G/DL. The “ALKALINE PHOSPHATASE” value [1] was 343 u/L, the “ASPARTATE AMINOTRANSFERASE” value [1] was 90.67 u/L and the “BLOOD UREA NITROGEN” value [1] was 15.67 mg/dL. For the same compound, the “CARBON DIOXIDE” value [1] was 25.67 mmol/L, the CHLORIDE [1] was 103.33 MEQ/L and the CHOLESTEROL [1] was 73.67 mg/dL. For the same compound, the “CREATINE PHOSPHOKINASE” value [1] was 330.67 u/L, the CREATININE [1] was 0.38 mg/dL and the GLUCOSE [1] was 167.33 mg/dL. For the same compound, the “LACTATE DEHYDROGENASE” value [1] was 139.33 u/L, the LIPASE [1] was 12 u/L and the PHOSPHORUS [1] was 14.17 mg/dL. For the same compound, the POTASSIUM [1] was 7.29 MEQ/L, the SODIUM [1] was 146.03 MEQ/L and the “TOTAL BILIRUBIN” value [1] was 0.17 mg/dL. For the same compound, the “TOTAL PROTEIN” value [1] was 5.8 G/DL, the “URIC ACID” value [1] was 2.07 mg/dL and the “ABSOLUTE BASOPHIL” value [2] was 0 CELLS/uL. The “ABSOLUTE EOSINOPHIL” value [2] was 0 CELLS/uL, the “ABSOLUTE LYMPHOCYTE” value [2] was 11544.67 CELLS/uL and the “ABSOLUTE MONOCYTE” value [2] was 213 CELLS/uL. The “ABSOLUTE SEGMENTED NEUTROPHIL” value [2] was 1075.67 CELLS/uL, the BASOPHIL [2] was 0% and the EOSINOPHIL [2] was 0%. The “ERYTHROCYTE COUNT” value [2] was 5.16 x10E6/uL, the HEMATOCRIT [2] was 32.83% and the HEMOGLOBIN [2] was 12.33 G/DL. For the same compound, the “LEUKOCYTE COUNT” value [2] was 12.83 x10E3/uL, the LYMPHOCYTE [2] was 90% and the “MEAN CORPUSCULAR HEMOGLOBIN” value [2] was 23.93 pg. The “MEAN CORPUSCULAR HEMOGLOBIN CONCENTRATION” value [2] was 37.77 G/DL, the “MEAN CORPUSCULAR VOLUME” value [2] was 63.47 fL and the MONOCYTE [2] was 1.67%. The NEUTROPHIL [2] was 8.33%, the “NUCLEATED RED BLOOD CELLS” value [2] was 0 /100WBC and the “PLATELET COUNT” value [2] was 1107.67 x10E3/uL. For the same compound, the “ALANINE AMINOTRANSFERASE” value [2] was 62.33 u/L, the ALBUMIN [2] was 4.3 G/DL and the “ALKALINE PHOSPHATASE” value [2] was 354.67 u/L. For the same compound, the “ASPARTATE AMINOTRANSFERASE” value [2] was 90.33 u/L, the “BLOOD UREA NITROGEN” value [2] was 17.67 mg/dL and the “CARBON DIOXIDE” value [2] was 23 mmol/L. For the same compound, the CHLORIDE [2] was 104.67 MEQ/L, the CHOLESTEROL [2] was 70.33 mg/dL and the “CREATINE PHOSPHOKINASE” value [2] was 349.67 u/L. For the same compound, the CREATININE [2] was 0.49 mg/dL, the GLUCOSE [2] was 153 mg/dL and the “LACTATE DEHYDROGENASE” value [2] was 186 u/L. For the same compound, the LIPASE [2] was 11 u/L, the PHOSPHORUS [2] was 11.7 mg/dL and the POTASSIUM [2] was 6.42 MEQ/L. The SODIUM [2] was 146.17 MEQ/L, the “TOTAL BILIRUBIN” value [2] was 0.2 mg/dL and the “TOTAL PROTEIN” value [2] was 6.03 G/DL. The “URIC ACID” value [2] was 1.63 mg/dL, the “ABSOLUTE BASOPHIL” value [3] was 0 CELLS/uL and the “ABSOLUTE EOSINOPHIL” value [3] was 92 CELLS/uL. The “ABSOLUTE LYMPHOCYTE” value [3] was 10640.67 CELLS/uL, the “ABSOLUTE MONOCYTE” value [3] was 57.67 CELLS/uL and the “ABSOLUTE SEGMENTED NEUTROPHIL” value [3] was 1309.67 CELLS/uL. For the same compound, the BASOPHIL [3] was 0%, the EOSINOPHIL [3] was 0.67% and the “ERYTHROCYTE COUNT” value [3] was 5.89 x10E6/uL. The HEMATOCRIT [3] was 38.83%, the HEMOGLOBIN [3] was 13.87 G/DL and the “LEUKOCYTE COUNT” value [3] was 12.1 x10E3/uL. The LYMPHOCYTE [3] was 88%, the “MEAN CORPUSCULAR HEMOGLOBIN” value [3] was 23.53 pg and the “MEAN CORPUSCULAR HEMOGLOBIN CONCENTRATION” value [3] was 35.73 G/DL. The “MEAN CORPUSCULAR VOLUME” value [3] was 65.93 fL, the MONOCYTE [3] was 0.33% and the NEUTROPHIL [3] was 11%. For the same compound, the “NUCLEATED RED BLOOD CELLS” value [3] was 0.33 /100WBC, the “PLATELET COUNT” value [3] was 1356.67 x10E3/uL and the “ALANINE AMINOTRANSFERASE” value [3] was 52.33 u/L. The ALBUMIN [3] was 4.4 G/DL, the “ALKALINE PHOSPHATASE” value [3] was 407.67 u/L and the “ASPARTATE AMINOTRANSFERASE” value [3] was 70.33 u/L. For the same compound, the “BLOOD UREA NITROGEN” value [3] was 16.67 mg/dL, the “CARBON DIOXIDE” value [3] was 29.33 mmol/L and the CHLORIDE [3] was 102.33 MEQ/L. For the same compound, the CHOLESTEROL [3] was 85.33 mg/dL, the “CREATINE PHOSPHOKINASE” value [3] was 225 u/L and the CREATININE [3] was 0.27 mg/dL. For the same compound, the GLUCOSE [3] was 150 mg/dL, the “LACTATE DEHYDROGENASE” value [3] was 77 u/L and the LIPASE [3] was 9.67 u/L. The PHOSPHORUS [3] was 11.8 mg/dL, the POTASSIUM [3] was 6.59 MEQ/L and the SODIUM [3] was 146.77 MEQ/L. For the same compound, the “TOTAL BILIRUBIN” value [3] was 0.17 mg/dL, the “TOTAL PROTEIN” value [3] was 6.43 G/DL and the “URIC ACID” value [3] was 2.1 mg/dL. The “ABSOLUTE BASOPHIL” value [4] was 0 CELLS/uL, the “ABSOLUTE EOSINOPHIL” value [4] was 63 CELLS/uL and the “ABSOLUTE LYMPHOCYTE” value [4] was 13558.67 CELLS/uL. For the same compound, the “ABSOLUTE MONOCYTE” value [4] was 820 CELLS/uL, the “ABSOLUTE SEGMENTED NEUTROPHIL” value [4] was 3591.67 CELLS/uL and the BASOPHIL [4] was 0%. For the same compound, the EOSINOPHIL [4] was 0.33%, the “ERYTHROCYTE COUNT” value [4] was 5.88 x10E6/uL and the HEMATOCRIT [4] was 37.4%. For the same compound, the HEMOGLOBIN [4] was 14 G/DL, the “LEUKOCYTE COUNT” value [4] was 18.03 x10E3/uL and the LYMPHOCYTE [4] was 75.33%. The “MEAN CORPUSCULAR HEMOGLOBIN” value [4] was 23.8 pg, the “MEAN CORPUSCULAR HEMOGLOBIN CONCENTRATION” value [4] was 37.47 G/DL and the “MEAN CORPUSCULAR VOLUME” value [4] was 63.57 fL. The MONOCYTE [4] was 4.67%, the NEUTROPHIL [4] was 19.67% and the “NUCLEATED RED BLOOD CELLS” value [4] was 0 /100WBC. The “PLATELET COUNT” value [4] was 1367 x10E3/uL, the “ALANINE AMINOTRANSFERASE” value [4] was 57.67 u/L and the ALBUMIN [4] was 4 G/DL. The “ALKALINE PHOSPHATASE” value [4] was 325.67 u/L, the “ASPARTATE AMINOTRANSFERASE” value [4] was 70.67 u/L and the “BLOOD UREA NITROGEN” value [4] was 19 mg/dL. The “CARBON DIOXIDE” value [4] was 23.67 mmol/L, the CHLORIDE [4] was 104.67 MEQ/L and the CHOLESTEROL [4] was 86.33 mg/dL. For the same compound, the “CREATINE PHOSPHOKINASE” value [4] was 235.67 u/L, the CREATININE [4] was 0.3 mg/dL and the GLUCOSE [4] was 163.33 mg/dL. The “LACTATE DEHYDROGENASE” value [4] was 138.67 u/L, the LIPASE [4] was 10 u/L and the PHOSPHORUS [4] was 12.13 mg/dL. The POTASSIUM [4] was 6.32 MEQ/L, the SODIUM [4] was 145.77 MEQ/L and the “TOTAL BILIRUBIN” value [4] was 0.13 mg/dL. For the same compound, the “TOTAL PROTEIN” value [4] was 6.3 G/DL and the “URIC ACID” value [4] was 1.7 mg/dL.
